Reference: ChEMBL document CHEMBL1201862, “PubChem BioAssay data set” (2004)
Calls of active or inactive are those of the source.

Legend:
Coagulation factor XII = biological target: T1, Coagulation factor XII (Homo sapiens, UniProt P00748); assay: activated coagulation factor XII inhibitor potency, concentration-effect curve, cell-free (AID 716); assay type: functional
T1 sequence (P00748 whole entry): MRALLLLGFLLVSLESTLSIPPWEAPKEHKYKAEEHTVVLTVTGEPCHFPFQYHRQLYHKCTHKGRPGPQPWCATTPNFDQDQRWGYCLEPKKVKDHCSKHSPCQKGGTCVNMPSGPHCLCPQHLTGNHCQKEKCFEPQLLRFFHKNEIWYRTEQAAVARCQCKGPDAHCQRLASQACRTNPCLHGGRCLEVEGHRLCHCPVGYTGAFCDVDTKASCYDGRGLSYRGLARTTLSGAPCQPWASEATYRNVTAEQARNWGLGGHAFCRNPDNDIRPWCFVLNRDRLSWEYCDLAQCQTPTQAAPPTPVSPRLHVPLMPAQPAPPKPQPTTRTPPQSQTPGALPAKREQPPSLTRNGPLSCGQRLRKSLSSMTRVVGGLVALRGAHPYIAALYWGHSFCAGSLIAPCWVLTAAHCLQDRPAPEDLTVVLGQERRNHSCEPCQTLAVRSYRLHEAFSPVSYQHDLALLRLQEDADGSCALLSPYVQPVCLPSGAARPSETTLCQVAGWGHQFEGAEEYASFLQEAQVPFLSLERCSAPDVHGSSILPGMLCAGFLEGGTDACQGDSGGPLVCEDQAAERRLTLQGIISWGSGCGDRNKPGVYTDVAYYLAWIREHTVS

[1] = biological target: FAD-linked sulfhydryl oxidase ALR (Homo sapiens, UniProt P55789); assay: ALR-catalysed DTT oxidation blockers – biochemical, H2O2 detection, luminescence, cherry-pick, dose response (AID 493248)
FAD-linked sulfhydryl oxidase ALR, sequence (P55789 whole entry): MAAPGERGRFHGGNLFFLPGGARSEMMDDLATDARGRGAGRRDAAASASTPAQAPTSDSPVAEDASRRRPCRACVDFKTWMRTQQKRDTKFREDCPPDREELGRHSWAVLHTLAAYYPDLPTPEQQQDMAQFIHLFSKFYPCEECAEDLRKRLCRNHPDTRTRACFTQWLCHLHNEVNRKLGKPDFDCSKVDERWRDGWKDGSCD

[2] = biological target: Intestinal-type alkaline phosphatase (Homo sapiens, UniProt P09923); assay: Dose Response confirmation of uHTS hits from a small molecule inhibitors of human intestinal alkaline phosphatase via a luminescent assay. [Related pubchem assays (depositor defined):AID2544, AID2574]; assay type: functional
Intestinal-type alkaline phosphatase, sequence (P09923 whole entry): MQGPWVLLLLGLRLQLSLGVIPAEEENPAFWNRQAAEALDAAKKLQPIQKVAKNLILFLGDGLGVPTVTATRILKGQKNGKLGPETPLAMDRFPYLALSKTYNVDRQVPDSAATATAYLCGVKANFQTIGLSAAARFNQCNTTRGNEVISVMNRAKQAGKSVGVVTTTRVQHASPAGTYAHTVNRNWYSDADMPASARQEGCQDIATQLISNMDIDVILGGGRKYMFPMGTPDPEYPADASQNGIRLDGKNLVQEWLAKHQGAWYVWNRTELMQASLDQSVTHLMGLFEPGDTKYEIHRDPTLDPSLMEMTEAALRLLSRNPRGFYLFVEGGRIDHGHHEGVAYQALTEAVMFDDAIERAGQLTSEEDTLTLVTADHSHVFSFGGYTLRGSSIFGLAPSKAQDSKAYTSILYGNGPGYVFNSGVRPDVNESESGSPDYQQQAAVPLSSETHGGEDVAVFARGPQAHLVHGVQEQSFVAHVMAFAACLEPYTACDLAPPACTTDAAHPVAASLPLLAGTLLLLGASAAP

[3] = biological target: Voltage-gated N-type calcium channel alpha-1B subunit/Amyloid beta A4 precursor protein-binding family A member 1 (Homo sapiens, UniProt Q00975+Q02410); assay: disruptors of Mint-PDZ/N-type channel peptide interaction – biochemical, HTRF, set 2, SAR follow-up (AID 434980); assay type: functional
Streptococcus = assay: GAS UMAA2166 growth inhibition – luminescence, BacTiterGlo, counter-screen for streptokinase expression inhibitor project, dose response (AID 1915); assay type: functional, organism-based;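 further: potency for reduction of bacterial viability or growth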
[4] = biological target: T2, Rac GTPase-activating protein 1 (Homo sapiens, UniProt Q9H0H5); assay: blockers of MgcRacGAP-driven Rac1 GTP hydrolysis – biochemical, ADP Hunter fluorescence, primary and confirmatory, confirmation (AID 624330); assay type: functional
T2 sequence (Q9H0H5 whole entry): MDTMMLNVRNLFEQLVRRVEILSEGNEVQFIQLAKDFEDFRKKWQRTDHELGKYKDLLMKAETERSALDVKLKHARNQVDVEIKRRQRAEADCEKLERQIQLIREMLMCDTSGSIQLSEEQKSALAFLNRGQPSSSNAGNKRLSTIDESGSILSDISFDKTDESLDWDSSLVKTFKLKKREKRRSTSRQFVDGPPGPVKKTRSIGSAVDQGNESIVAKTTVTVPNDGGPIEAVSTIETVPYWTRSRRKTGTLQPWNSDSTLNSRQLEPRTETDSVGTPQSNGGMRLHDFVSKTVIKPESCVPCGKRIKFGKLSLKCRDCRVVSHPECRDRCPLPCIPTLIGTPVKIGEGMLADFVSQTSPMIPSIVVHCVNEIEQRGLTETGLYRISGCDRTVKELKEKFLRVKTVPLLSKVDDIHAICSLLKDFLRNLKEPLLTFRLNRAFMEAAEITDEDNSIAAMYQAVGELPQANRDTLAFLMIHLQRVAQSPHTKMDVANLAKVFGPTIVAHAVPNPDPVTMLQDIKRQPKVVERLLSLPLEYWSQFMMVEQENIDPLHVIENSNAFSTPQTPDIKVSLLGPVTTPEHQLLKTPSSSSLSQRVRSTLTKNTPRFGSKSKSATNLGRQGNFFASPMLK

Salmon testes DNA = assay: acridine orange-DNA binding displacement – biochemical, fluorescence polarization, cherry-picked samples, set 2, artefact control for KSHV LANA DNA-binding inhibitor project, dose response (AID 504727); parameters: species or system Salmonidae
Keap1/Nrf2 = Keap1/Nrf2 (Homo sapiens, UniProt Q14145); assay: disruptors of Keap1 binding to Nrf2 peptide – biochemical, fluorescence polarization, cherry-picked samples, dose response (AID 588683)
Keap1/Nrf2, sequence (Q16236 whole entry): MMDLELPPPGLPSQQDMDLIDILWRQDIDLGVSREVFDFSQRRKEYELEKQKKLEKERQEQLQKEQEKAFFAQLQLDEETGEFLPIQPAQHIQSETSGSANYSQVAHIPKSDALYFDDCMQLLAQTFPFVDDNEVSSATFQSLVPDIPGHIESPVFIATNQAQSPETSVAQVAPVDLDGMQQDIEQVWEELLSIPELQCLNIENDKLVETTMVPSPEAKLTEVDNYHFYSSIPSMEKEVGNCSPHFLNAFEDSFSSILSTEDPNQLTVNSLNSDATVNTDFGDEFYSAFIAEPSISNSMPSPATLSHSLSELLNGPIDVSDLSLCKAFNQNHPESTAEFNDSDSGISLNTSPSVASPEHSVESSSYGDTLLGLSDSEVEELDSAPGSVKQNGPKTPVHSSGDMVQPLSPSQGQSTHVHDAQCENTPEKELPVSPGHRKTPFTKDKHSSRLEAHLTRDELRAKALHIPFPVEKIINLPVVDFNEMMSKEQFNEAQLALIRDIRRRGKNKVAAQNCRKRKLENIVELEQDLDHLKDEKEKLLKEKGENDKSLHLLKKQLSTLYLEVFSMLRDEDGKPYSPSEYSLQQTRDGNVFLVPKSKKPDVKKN
Keap1/Nrf2, sequence (Q14145 whole entry): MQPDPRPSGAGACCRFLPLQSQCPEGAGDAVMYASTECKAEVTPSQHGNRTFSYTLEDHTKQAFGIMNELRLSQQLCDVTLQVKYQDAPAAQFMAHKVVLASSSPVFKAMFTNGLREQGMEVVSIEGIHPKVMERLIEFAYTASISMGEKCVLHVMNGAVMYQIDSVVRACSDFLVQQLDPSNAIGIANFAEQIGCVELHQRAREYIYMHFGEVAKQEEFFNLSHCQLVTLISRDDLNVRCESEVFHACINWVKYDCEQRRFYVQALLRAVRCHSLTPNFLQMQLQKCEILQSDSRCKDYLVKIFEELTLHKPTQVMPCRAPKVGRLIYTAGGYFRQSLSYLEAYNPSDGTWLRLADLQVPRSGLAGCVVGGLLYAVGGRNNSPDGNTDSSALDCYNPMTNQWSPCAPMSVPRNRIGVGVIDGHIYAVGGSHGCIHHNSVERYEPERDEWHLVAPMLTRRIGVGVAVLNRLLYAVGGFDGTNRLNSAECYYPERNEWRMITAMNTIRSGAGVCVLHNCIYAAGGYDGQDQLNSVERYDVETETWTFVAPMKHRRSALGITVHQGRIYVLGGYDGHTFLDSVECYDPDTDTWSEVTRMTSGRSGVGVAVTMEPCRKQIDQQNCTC

Streptokinase A = biological target: T3, Streptokinase A (Streptococcus pyogenes serotype M1, UniProt P10520); assay: viability-normalized secreted streptokinase activity reduction – plasminogen activation absorbance, OD405, dose response (AID 1914); assay type: functional, Streptococcus pyogenes M1 GAS;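 further: secreted streptokinase activity via plasminogen activation per viability signal from cell pellet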
T3 sequence (P10520 whole entry): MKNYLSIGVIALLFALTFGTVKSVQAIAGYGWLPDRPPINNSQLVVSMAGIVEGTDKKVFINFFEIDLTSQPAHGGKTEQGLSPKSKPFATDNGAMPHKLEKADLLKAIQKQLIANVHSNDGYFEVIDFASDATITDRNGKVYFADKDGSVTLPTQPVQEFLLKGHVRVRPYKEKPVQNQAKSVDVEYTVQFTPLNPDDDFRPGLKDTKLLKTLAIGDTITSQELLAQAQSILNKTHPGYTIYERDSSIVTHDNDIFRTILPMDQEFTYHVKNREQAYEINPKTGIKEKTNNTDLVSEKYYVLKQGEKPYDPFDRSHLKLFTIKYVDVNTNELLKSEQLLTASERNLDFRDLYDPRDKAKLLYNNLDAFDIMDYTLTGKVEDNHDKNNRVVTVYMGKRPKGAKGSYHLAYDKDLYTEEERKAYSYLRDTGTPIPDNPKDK

[5] = Luminescence Cell-Based Dose Retest to Confirm Inhibitors of Cancer Stem Cells. [Related pubchem assays (depositor defined):AID2717, AID2721]; assay type: functional; conditions: Homo sapiens
ORF 73 = ORF 73 (Human herpesvirus 8, UniProt O40947); assay: KSHV LANA DNA-binding disruption – biochemical, fluorescence polarization, cherry-picked samples, dose response (AID 504725); parameters: species or system Human gammaherpesvirus 8;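 further: fluorescence polarization of a labeled DNA duplex reporting LANA DNA binding; potency is for inhibitors that block LANA binding to the DNA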
ORF 73, sequence (O40947 whole entry): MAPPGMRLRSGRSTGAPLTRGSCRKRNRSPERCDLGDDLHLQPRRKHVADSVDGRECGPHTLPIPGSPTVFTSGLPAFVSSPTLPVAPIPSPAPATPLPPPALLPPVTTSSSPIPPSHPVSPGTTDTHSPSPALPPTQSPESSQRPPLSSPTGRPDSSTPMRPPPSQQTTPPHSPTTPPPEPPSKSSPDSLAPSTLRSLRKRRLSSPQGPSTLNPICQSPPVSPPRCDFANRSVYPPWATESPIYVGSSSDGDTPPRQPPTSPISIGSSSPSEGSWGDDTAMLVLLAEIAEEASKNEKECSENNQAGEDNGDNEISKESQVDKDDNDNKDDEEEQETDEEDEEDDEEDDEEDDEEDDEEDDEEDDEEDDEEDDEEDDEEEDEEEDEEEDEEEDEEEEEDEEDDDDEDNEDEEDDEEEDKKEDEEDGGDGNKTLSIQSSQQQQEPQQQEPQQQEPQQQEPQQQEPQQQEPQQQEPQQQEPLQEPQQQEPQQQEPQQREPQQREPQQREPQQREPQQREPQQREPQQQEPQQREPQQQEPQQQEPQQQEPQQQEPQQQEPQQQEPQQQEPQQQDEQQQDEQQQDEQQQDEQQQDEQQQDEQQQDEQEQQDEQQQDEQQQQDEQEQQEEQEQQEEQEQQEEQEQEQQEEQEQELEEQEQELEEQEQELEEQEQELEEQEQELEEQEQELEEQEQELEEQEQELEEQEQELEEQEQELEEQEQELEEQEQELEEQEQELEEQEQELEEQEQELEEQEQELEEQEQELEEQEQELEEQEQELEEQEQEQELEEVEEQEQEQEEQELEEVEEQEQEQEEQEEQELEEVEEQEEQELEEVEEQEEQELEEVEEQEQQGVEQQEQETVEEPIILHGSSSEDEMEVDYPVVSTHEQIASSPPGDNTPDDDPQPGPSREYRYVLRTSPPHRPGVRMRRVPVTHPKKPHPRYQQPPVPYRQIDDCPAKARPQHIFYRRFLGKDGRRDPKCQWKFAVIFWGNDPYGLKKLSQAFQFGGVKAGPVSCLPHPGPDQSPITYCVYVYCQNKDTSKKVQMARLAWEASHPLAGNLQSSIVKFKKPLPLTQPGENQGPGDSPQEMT

[6] = system: Streptococcus sp. 'group A'; assay: Streptococcus pyogenes SK(-)GAS viability under kanamycin – luminescence, BacTiterGlo, confirmation, counter-screen for streptokinase expression inhibitor project, dose response (AID 1900); assay type: functional, organism-based
HeLa = assay: viability loss in HeLa cells – cell-based, 24 h, cherry-picked samples, cytotoxicity control, dose response (AID 504726); assay type: functional; conditions: Homo sapiens;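 further: potency for cytotoxicity as loss of luminescence signal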
[7] = biological target: Metabotropic glutamate receptor 4 (Rattus norvegicus, UniProt P31423); assay: Modulation of the Metabotropic Glutamate Receptor mGluR4: Rat PAM Potency. [Related pubchem assays (depositor defined):AID2437, AID2807]; assay type: functional
Metabotropic glutamate receptor 4, sequence (P31423 whole entry): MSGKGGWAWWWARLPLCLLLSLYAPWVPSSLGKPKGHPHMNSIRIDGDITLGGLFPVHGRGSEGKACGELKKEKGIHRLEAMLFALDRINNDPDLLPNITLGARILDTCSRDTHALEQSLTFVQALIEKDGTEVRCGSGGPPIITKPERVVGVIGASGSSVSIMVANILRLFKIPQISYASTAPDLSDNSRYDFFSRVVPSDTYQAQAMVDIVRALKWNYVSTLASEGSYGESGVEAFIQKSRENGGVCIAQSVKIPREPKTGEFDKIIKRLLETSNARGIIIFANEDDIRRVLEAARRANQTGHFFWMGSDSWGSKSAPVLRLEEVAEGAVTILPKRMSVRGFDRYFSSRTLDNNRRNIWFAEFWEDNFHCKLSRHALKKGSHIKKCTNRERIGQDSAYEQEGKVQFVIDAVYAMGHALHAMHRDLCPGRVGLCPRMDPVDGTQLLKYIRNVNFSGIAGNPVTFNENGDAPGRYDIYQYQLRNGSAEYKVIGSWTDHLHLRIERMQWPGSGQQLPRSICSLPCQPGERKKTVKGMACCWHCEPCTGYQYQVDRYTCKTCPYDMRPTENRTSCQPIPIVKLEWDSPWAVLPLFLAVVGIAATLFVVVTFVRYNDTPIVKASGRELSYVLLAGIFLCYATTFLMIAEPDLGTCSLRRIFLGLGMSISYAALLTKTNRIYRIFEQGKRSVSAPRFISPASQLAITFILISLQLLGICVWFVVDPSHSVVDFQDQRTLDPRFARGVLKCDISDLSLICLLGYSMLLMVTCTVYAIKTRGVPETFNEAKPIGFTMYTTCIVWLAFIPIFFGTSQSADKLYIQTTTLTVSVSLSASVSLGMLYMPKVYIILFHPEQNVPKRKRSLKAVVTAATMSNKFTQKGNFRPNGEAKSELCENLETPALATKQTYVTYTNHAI

Hexokinase = Hexokinase (Trypanosoma brucei, UniProt Q38C41); assay: Confirmation assay for inhibitors of Trypanosoma brucei hexokinase 1-Analogue-first series. [Related pubchem assays (depositor defined):AID1430, AID1632, AID2516, AID2560, AID2579, AID2600, AID449725, AID492951]; assay type: functional
Hexokinase, sequence (Q38C41 whole entry): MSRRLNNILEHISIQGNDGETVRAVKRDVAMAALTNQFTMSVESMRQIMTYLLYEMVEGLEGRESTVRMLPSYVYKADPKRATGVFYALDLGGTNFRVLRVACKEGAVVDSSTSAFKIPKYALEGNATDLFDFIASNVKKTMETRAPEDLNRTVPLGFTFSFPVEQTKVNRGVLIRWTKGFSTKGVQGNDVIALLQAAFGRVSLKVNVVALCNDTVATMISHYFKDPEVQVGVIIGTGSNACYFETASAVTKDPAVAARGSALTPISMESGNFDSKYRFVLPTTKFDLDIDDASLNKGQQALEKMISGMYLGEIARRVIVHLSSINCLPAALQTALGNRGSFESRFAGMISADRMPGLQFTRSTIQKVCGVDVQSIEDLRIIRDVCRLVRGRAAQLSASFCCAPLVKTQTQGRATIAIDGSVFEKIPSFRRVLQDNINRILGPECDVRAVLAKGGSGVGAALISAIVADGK

In the case of `CC(C)C1C(C#N)=C(N)Oc2[nH]nc(-c3cccs3)c21` (stereo not given), the IC50 (Coagulation factor XII) is reported as > 50 µM (inactive) and the AC50 [1] is reported as 6.41 µM (active).

With `CCOc1cccc(OCCOCCOc2ccccc2C(C)=O)c1` the IC50 [2] was > 100 µM (inactive).

With `CC(C)CCNC(=O)c1cc(-c2ccco2)nc2ccccc12` the IC50 [3] was > 56.8 µM (inactive).

With `COc1ccc(NC(=O)c2cccc(-c3ccc(O)cc3)c2)cn1` the EC50 (Streptococcus) was > 150 µM (not active), the IC50 [4] was 42.3 µM (active) and the AC50 (Salmon testes DNA) was 45.4 µM (active). For the same compound, the AC50 (Keap1/Nrf2) was 43.8 µM (active), the EC50 (Streptokinase A) was > 150 µM (not active) and the AC50 [5] was 4.31 µM (active). The AC50 (ORF 73) was 34.3 µM (active), the EC50 [6] was 16.9 µM (active) and the AC50 (HeLa) was 144 µM (active).

For `O=C(Nc1ccc(NC(=O)c2ccccc2Cl)c(F)c1)c1ccccn1`, the EC50 [7] was 0.74 µM (active).

In the case of `O=c1cc(-c2ccccc2)sn1-c1ccccc1`, the IC50 (Hexokinase) is reported as > 25 µM (inactive).
